According to paper PMC2698315 (Journal of Chemical Biology, 2008):

Tests used:
[1] = test system: Vascular endothelial protein tyrosine phosphatase (VE-PTP); assay: Phosphatase inhibition assay; format: biochemical; settings: 4PL fit, 37 °C, 1 mM substrate, Fig. 3b (quadrant 2)
[2] = target: vaccinia virus VH1-related (VHR) phosphatase (Homo sapiens, UniProt P51452); format: biochemical; settings: 4PL fit, 37 °C, 5 mM substrate, Fig. 3a (quadrant 3)
vaccinia virus VH1-related (VHR) phosphatase, sequence (P51452 whole entry): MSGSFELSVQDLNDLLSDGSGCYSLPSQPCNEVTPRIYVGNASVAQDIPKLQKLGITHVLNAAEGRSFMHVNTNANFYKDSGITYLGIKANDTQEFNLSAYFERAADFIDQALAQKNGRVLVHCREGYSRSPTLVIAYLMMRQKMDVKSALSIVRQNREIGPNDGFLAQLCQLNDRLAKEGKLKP

| Structure (SMILES) | Hill coefficient [1] | Hill coefficient [2] |
| --- | --- | --- |
| O=C(O[C@@H]1Cc2c(O)cc(O)cc2O[C@@H]1c1cc(O)c(O)c(O)c1)c1cc(O)c(O)c(O)c1 [compound 172, Epigallocatechin-3-monogallate] | 0.55 | – |
| CC(C)(c1ccc(NS(=O)(=O)C(F)(F)F)cc1)c1ccc(C(C)(C)c2ccc(NS(=O)(=O)C(F)(F)F)cc2)cc1 [compound 281, bis(4-trifluoromethylsulfonamidophenyl)-1,4-diisopropylbenzene] | – | 2.7 |
